In article PMC2033546, “Effects of somatostatin analogue RC-160 and bombesin/gastrin-releasing peptide antagonists on the growth of human small-cell and non-small-cell lung carcinomas in nude mice” (British Journal of Cancer, 1994):
Where no end group is shown, it is not given here. [ ]: non-standard residue; d: D form.

Columns and labels:
[1] = test system: human SCLC cell line NCI-H69; experiment: Growth of H69 SCLC xenografts in nude mice; format: in vivo, human (xenograft in male athymic nude mice)
Description: (§1) Br. J. Cancer (1994). 70, 886 892 ? Macmillan Press Ltd.. […] Bombesin GRP antagonists. […] Lung carcinoma is the leading cause of cancer-related deaths in the western world. It is estimated that in 1992 there were approximately 168,000 new cases of lung cancer in the US and that about 146,000 deaths occurred from this disease (Boring et al., 1992). […] The growth factors such as bombesin/gastrin-releasing pep- tide (GRP), epidermal growth factor, (EGF), transforming growth factor a (TGF-x) and insulin-like growth factor I(IGF-I) appear to play a role in the proliferation and pro- gression of lung cancer (Cuttitta et al., 1985; Veale et al., 1987; Minuto et al., 1988; Siegfried & Owens, 1988; Macaulay et al., 1990; Tateishi et al., 1991; Damstrup et al., 1992; Sethi & Rozengurt, 1992; Rabiasz et al., 1992; Moody & Cuttitta, 1993). […] Tpi is 2,3,4,9-tetrahydro- Correspondence: A.V. Schally (151). VA Medical Center, 1601 Per- dido Street. New Orleans, LA 70146. USA. Received 1 March 1994; and in revised form 5 July 1994. Br. J. Cancer (1994), 70, 886-892 C Macmillan Press Ltd., 1994 PEPTIDE ANALOGUES IN LUNG CANCER 8U7 lH-pyrido [3,4bjindol-3-carboxylic acid, a conformationally constrained secondary amine derivate of tryptophan and Tac is thiazolidine-4-carboxylic acid. […] Animals Male athymic NCr nulmu nude mice, approximately 6 weeks old on arrival, were obtained from the NCI (Bethesda, MD, USA) and maintained under pathogen-limited conditions. Cell lines The human SCLC cell line NCI-H69, was obtained from the American Type Cell Culture (ATCC), Rockville, MD, USA and the non-SCLC cell line NCI-H157, from Dr H. Oie, NCI-Navy Medical Oncology Branch, Bethesda, MD, USA. These cell lines were cultured in RPMI-1640 medium supple- mented with 4 mM L-glutamine, 50 units ml-I penicilln G sodium, SOigml-' streptomycin sulphate, 0.125pgml-' amphotericin B and 10% fetal bovine serum at 3TC in a humidified 95% air/5% carbon dioxide atmosphere. CeLs were passaged weekly and routinely monitored for myco- plasma contamination using a detection kit (Boehringer- Mannheim, Mannheim, Germany). All culture media com- ponents were purchased from Gibco (Grand Island, NY, USA). Receptor assays Preparation of membranes for receptor studies was described previously (Halmos et al., 1993). Iodinated EGF and IGF-I were purchased from Amersham (Arlington Heights, IL, USA). Radioiodination of other peptides and receptor bind- ing of EGF, IGF-I, somatostatin and bombesin/GRP were performed as previously described (Srkalovic et al., 1989; Szepeshazi et al., 1992). Complete displacement assays on tumour membranes were done only once because of the shortage of tumour material. The LIGAND PC computerised curve-fitting programme of Munson and Rodbard (1980) was used to determine the types of receptor binding, dissociation constant (Kd) values, and the maximal binding capacity (BDj) of receptors. In order to determine the specificity of the binding sites for radiolabelled EGF, IGF-I, somatostatin and bombesin to lung cancer membranes, various structuraly related and unrelated peptides were tested for their ability to inhibit the binding of the tracers. Histological procedure The histological procedures were the same as described previously (Szepeshazi et al., 1991, 1992). The number of mitotic and apoptotic cells per 1,000 cells was determined, and the percentage area of necrosis in tumour sections was examined using the point-counting method (Szepeshazi et al., 1991, 1992), in which the crossing points of an ocular net that coincide with necrosis in various sections are counted. Radiommunoassays Serum levels of growth hormone were determined by double- antibody radioimmunoassay (RIA) using materials supplied by the National Hormone and Pituitary Program of the National Institute of Diabetes and Digestive and Kidney Diseases (NIDDK).

[2] = test system: non-SCLC cell line NCI-H157; experiment: Growth of H157 non-SCLC xenografts in nude mice; format: in vivo, human (xenograft in male athymic nude mice); settings: RC-160 100 µg/day, RC-3095 20 µg/day
Description: as §1

SCLC H69 tumours = experiment: Histology (mitosis, apoptosis, necrosis) of SCLC H69 tumours; format: in vivo, human (xenograft in nude mice); settings: Table II, Experiment I (SCLC H69); control 0.96 ? 0.1; means ? s.e.; *P < 0.05 vs control
Description: as §1

[3] = test system: EGF receptors in membranes of non-SCLC H157 tumours; experiment: EGF receptor binding on H157 tumour membranes after in vivo treatment; design: species or system human
Description: as §1, with “Receptor assays Preparation of membranes for receptor studies was described previously (Halmos et al., 1993). Iodinated EGF and IGF-I were purchased from Amersham (Arlington Heights, IL, USA). Radioiodination of other peptides and receptor bind- ing of EGF, IGF-I, somatostatin and bombesin/GRP were performed as previously described (Srkalovic et al., 1989; Szepeshazi et al., 1992). Complete displacement assays on tumour membranes were done only once because of the shortage of tumour material. The LIGAND PC computerised curve-fitting programme of Munson and Rodbard (1980) was used to determine the types of receptor binding, dissociation constant (Kd) values, and the maximal binding capacity (BDj) of receptors. In order to determine the specificity of the binding sites for radiolabelled EGF, IGF-I, somatostatin and bombesin to lung cancer membranes, various structuraly related and unrelated peptides were tested for their ability to inhibit the binding of the tracers. Histological procedure The histological procedures were the same as described previously (Szepeshazi et al., 1991, 1992).” left out

[4] = test system: IGF-I receptors in membranes of SCLC H69 tumours; experiment: IGF-I receptor binding on H69 tumour membranes after in vivo treatment; design: species or system human; settings: Table IV, Experiment I (SCLC-H69), control 294, done once
Description: as §1, with “Receptor assays Preparation of membranes for receptor studies was described previously (Halmos et al., 1993). Iodinated EGF and IGF-I were purchased from Amersham (Arlington Heights, IL, USA). Radioiodination of other peptides and receptor bind- ing of EGF, IGF-I, somatostatin and bombesin/GRP were performed as previously described (Srkalovic et al., 1989; Szepeshazi et al., 1992). Complete displacement assays on tumour membranes were done only once because of the shortage of tumour material. The LIGAND PC computerised curve-fitting programme of Munson and Rodbard (1980) was used to determine the types of receptor binding, dissociation constant (Kd) values, and the maximal binding capacity (BDj) of receptors. In order to determine the specificity of the binding sites for radiolabelled EGF, IGF-I, somatostatin and bombesin to lung cancer membranes, various structuraly related and unrelated peptides were tested for their ability to inhibit the binding of the tracers. Histological procedure The histological procedures were the same as described previously (Szepeshazi et al., 1991, 1992).” left out

[5] = test system: IGF-I receptors in membranes of non-SCLC H157 tumours; experiment: IGF-I receptor binding on H157 tumour membranes after in vivo treatment; design: species or system human
Description: as §1, with “Receptor assays Preparation of membranes for receptor studies was described previously (Halmos et al., 1993). Iodinated EGF and IGF-I were purchased from Amersham (Arlington Heights, IL, USA). Radioiodination of other peptides and receptor bind- ing of EGF, IGF-I, somatostatin and bombesin/GRP were performed as previously described (Srkalovic et al., 1989; Szepeshazi et al., 1992). Complete displacement assays on tumour membranes were done only once because of the shortage of tumour material. The LIGAND PC computerised curve-fitting programme of Munson and Rodbard (1980) was used to determine the types of receptor binding, dissociation constant (Kd) values, and the maximal binding capacity (BDj) of receptors. In order to determine the specificity of the binding sites for radiolabelled EGF, IGF-I, somatostatin and bombesin to lung cancer membranes, various structuraly related and unrelated peptides were tested for their ability to inhibit the binding of the tracers. Histological procedure The histological procedures were the same as described previously (Szepeshazi et al., 1991, 1992).” left out

[6] = test system: Bombesin/GRP receptors in membranes of SCLC H69 tumours; experiment: Bombesin/GRP receptor binding on H69 tumour membranes after in vivo treatment; design: species or system human; settings: Table IV, Experiment I (SCLC-H69); tumour membranes after in vivo treatment; control 420; done once
Description: as §1, with “In order to determine the specificity of the binding sites for radiolabelled EGF, IGF-I, somatostatin and bombesin to lung cancer membranes, various structuraly related and unrelated peptides were tested for their ability to inhibit the binding of the tracers. Histological procedure The histological procedures were the same as described previously (Szepeshazi et al., 1991, 1992).” left out

[7] = test system: Somatostatin receptors in membranes of SCLC H69 tumours; experiment: Somatostatin receptor binding on H69 tumour membranes after in vivo treatment; design: species or system human
Description: as §1, with “In order to determine the specificity of the binding sites for radiolabelled EGF, IGF-I, somatostatin and bombesin to lung cancer membranes, various structuraly related and unrelated peptides were tested for their ability to inhibit the binding of the tracers. Histological procedure The histological procedures were the same as described previously (Szepeshazi et al., 1991, 1992).” left out

[8] = test system: LNCaP prostatic cancer cells; settings: LNCaP cells in culture; ref Gattani et al., 1990; cited from earlier work
Description: (§2) Br. J. Cancer (1994). 70, 886 892 ? Macmillan Press Ltd..

[9] = test system: MIA PaCa-2 human pancreatic cancer cell line; settings: ref Liebow et al., 1989; cited from earlier work
Description: as §2

[10] = H69 SCLC xenografts, as compared with control group, RC-160 100 µg, RC-3950-II 20 µg per animal per day s.c. peritumorally, 5 weeks

[dF]CY[dW]KVCW-NH2 (cysteine pairing not given here) [RC-160, Somatostatin analogue RC-160]
Reduction in tumour volumes [1, 10]: more than 70%
Reduction in tumour weights [1, 10]: more than 70%
Time from which tumour growth was significantly inhibited ([1]; SCLC H69 tumours, P<0.01, from start of the experiment): 14 days
Tumour volume, final ([1]; Table I, Experiment I (SCLC-H69), 5 weeks s.c. peritumoral, RC-160 100 µg/day, RC-3440, RC-3095, RC-3950-II 20 µg/day per animal, control 249.7 ? 182.3, means ? s.d., ten animals per group, *P<0.05 vs control): 66.0 26.5* (mm)r
Tumour weight ([1]; Table I, Experiment I (SCLC-H69), 5 weeks s.c. peritumoral, RC-160 100 µg/day, antagonists 20 µg/day per animal, control 0.27 ? 0.19, means ? s.d., *P<0.05 vs control): 0.058 0.04* g
Tumour doubling time ([1]; Table I, Experiment I (SCLC-H69), 5 weeks, RC-160 100 µg/day, antagonists 20 µg/day per animal s.c., control 7.5): 12.7 days
Growth of H69 SCLC tumours (in words) ([1]; s.c. peritumorally, RC-160 100 µg, bombesin/GRP antagonists 20 µg per animal per day, 5 weeks): inhibited the growth of H69 SCLC xenografts
Growth of H157 non-SCLC tumours (in words) ([2]; 4 weeks s.c., SB-75 100 µg/day per animal, vs control): significantly reduced
Tumour volume, final ([2]; Table I, Experiment II (non-SCLC H157), 4 weeks s.c. peritumoral, SB-75 100 µg/day per animal, control 1580.3 ? 455.7, means ? s.d., ten animals per group, *P<0.05 vs control): 291.0 207.8* (mm)r
Tumour weight ([2]; Table I, Experiment II (non-SCLC H157), 4 weeks s.c., SB-75 100 µg/day, control 1.9 ? 0.3, means ? s.d., *P<0.05 vs control): 0.64 0.3* g
Tumour doubling time ([2]; Table I, Experiment II (non-SCLC H157), 4 weeks s.c., SB-75 100 µg/day, control 3.88): 6.06 days
Ratio of apoptotic to mitotic indices (SCLC H69 tumours): 2.27 ± 0.5*
EGF maximal binding capacity (Bmax) ([3]; Table IV, Experiment II (non-SCLC H157), tumour membranes after in vivo treatment, control 249, done once): 100 fmol mg' protein
EGF binding capacity on H157 tumours (in words) ([3]; after in vivo treatment): decreased
IGF-I maximal binding capacity (Bmax) [4]: 176 fmol mg' protein
IGF-I maximal binding capacity (Bmax) ([5]; Table IV, Experiment II (non-SCLC H157), tumour membranes after in vivo treatment, control 257, done once): 129 fmol mg' protein
IGF-I binding sites on H157 tumours (in words) ([5]; after in vivo treatment): decreased
Bombesin/GRP maximal binding capacity (Bmax) [6]: 435 fmol mg-'protein
Somatostatin maximal binding capacity (Bmax) ([7]; Table IV, Experiment I (SCLC-H69), tumour membranes after in vivo treatment, control 450, done once): 570 fmol mg-'protein
Binding capacity of receptors for somatostatin on H69 tumours (in words) ([7]; after in vivo treatment): increased the binding capacity of receptors for somatostatin
Effect on [3H]thymidine incorporation (in words) [8]: inhibitory effect
Effect on EGF-stimulated cell growth (in words) [9]: reversed the stimulatory effect of EGF
Effect on EGF-stimulated phosphorylation of the tyrosine kinase domain of the EGF receptors (in words) [9]: reversed the stimulatory effect of EGF
